Legend:
Solubility = format: physicochemical
Experimental: Yield 38 g (85%) of an orange powder melting at 80° C. (Tottoli) insoluble in water at room temperature but soluble in DMSO.

[1] = tested on: platelet aggregation induced by PAF; assay: Inhibition of platelet aggregation induced by PAF; format: cell-based, New Zealand rabbits; conditions: Oryctolagus cuniculus, rabbit platelets, aggregometer at 57° C. [sic]
Experimental: 1) Inhibition of platelet aggregation induced by PAF
This experimentation was conducted according to the method of R. KINLOUGH. RATHBONE, J. P. CAZENAVE, M. PACKHAM and F. MUSTARD, Lab. Invest. 48, 98, 1980. In this test, New Zealand rabbits were used (male New Zealand rabbits of an average weight of 5 kg).
The determinations are made on a chrono-log Coultronics aggregometer, at […] coupled with a graphic recorder; the results of these determinations (in molecular concentration) are reported on the table I on the central column.

Toxicity on mice = conditions: mouse, in vivo, IP
Source text: None of these compounds of this invention was toxic per os at dose of 1 g/kg on mice.
None of the compounds was toxic IP at the dose of 1 g/kg on mice with the exception of the examples 1, 5 and 10 for which the LD 50 was comprised between 0.5 and 1 g/kg.

omega 3 sites = assay: Global ischemia on gerbils; format: in vivo, gerbil; conditions: Meriones unguiculatus, 168 h; both carotides clamped 10 minutes; hippocampes taken one week later; 3H-PK 11195 2 nM; compared to control; significance marks (*, **, ***, NS) given; read-out: Global protection in %
Experimental: 3) Global ischemia on gerbils
For this test, males gerbilles were anaesthetized with brietal at the doses of 35 mg/kg IP; thereafter, both carotides were clamped for 10 minutes, then the clamping was released. Treated animals received each 10 mg/kg of the compounds of one of the examples.
One week later, the animals were killed and both hippocampes were taken, weighed and frozen at -80° C.
After crushing with 1 ml of TRIS-HCl buffer pH 7.4 for 30 secondes, aliquots of each 50 μl of this preparation were incubed in each 1 ml of TRIS-HCl buffer containing ^3 H-PK 11195 at 2 nM (90 Ci/mmole, NENE, Germany) for 1 hour at 25° C. For each preparation, 3 determinations were made. The density of omega 3 sites (marked by the specific ^3 H PK 11195 marker) are expressed in f-moles of PK 11195/mg of fresh tissues and converted in percentage of protection compared to control.

Row | Compound | solubility in DMSO (Solubility; DMSO) | solubility in water (Solubility; water, room temperature) | IC50 [1] | LD50 (Toxicity on mice) | inhibition in vivo at 10 mg/kg (omega 3 sites)
1 | CCCCCCCCCCCCCCCCS(=O)(=O)N1CCc2c(sc3c2C(c2ccccc2Cl)=NCc2nnc(C)n2-3)C1 [Example 1, 6-(2-chlorophenyl)-9-hexadecylsulphonyl-7,8,9,10-tetrahydro-1-methyl 4H-pyrido [4',3':4,5] thieno [3,2-f] 1,2,4-triazolo [4,3-a] 1,4-diazepine] | soluble | insoluble | 96.3 nM | 500 to 1000 mg/kg | 
2 | Cc1nnc2n1-c1sc3c(c1C(c1ccccc1Cl)=NC2)CCN(S(=O)(=O)c1ccccc1)C3 [Example 2, 6-(2-chlorophenyl)-9-phenylsulphonyl-7,8,9,10-tetrahydro-1-methyl 4H-pyrido [4',3':4,5] thieno [3,2-f] 1,2,4-triazolo [4,3-a] 1,4-diazepine] |  |  | 225 nM |  | 38.3%
3 | Cc1nnc2n1-c1sc3c(c1C(c1ccccc1Cl)=NC2)CCN(S(=O)(=O)c1c(Cl)cc(Cl)cc1Cl)C3 [Example 3, 6-(2-chlorophenyl)-9-(2,4,6-trichloro)phenylsulphonyl-7,8,9,10-tetrahydro-1-methyl 4H-pyrido [4',3':4,5] thieno [3,2-f] 1,2,4-triazolo [4,3-a] 1,4-diazepine] |  |  | 37.1 nM |  | 33.3%
4 | Cc1nnc2n1-c1sc3c(c1C(c1ccccc1Cl)=NC2)CCN(S(=O)(=O)c1ccc(C(F)(F)F)cc1)C3 [Example 4, 6-(2-chlorophenyl)-9-(trifluoromethyl)phenylsulphonyl-7,8,9,10-tetrahydro-1-methyl 4H-pyrido [4',3':4,5] thieno [3,2-f] 1,2,4-triazolo [4,3-a] 1,4-diazepine] |  |  | 98.2 nM |  | 38.7%
5 | COc1ccc(S(=O)(=O)N2CCc3c(sc4c3C(c3ccccc3Cl)=NCc3nnc(C)n3-4)C2)c(OC)c1OC [Example 5, 6-(2-chlorophenyl)-9-(4,5,6-trimethoxy)phenylsulphonyl-7,8,9,10-tetrahydro-1-methyl 4H-pyrido [4',3':4,5] thieno [3,2-f] 1,2,4-triazolo [4,3-a] 1,4-diazepine] |  |  | 187 nM | 500 to 1000 mg/kg | 28.1%
6 | Cc1nnc2n1-c1sc3c(c1C(c1ccccc1Cl)=NC2)CCN(S(=O)(=O)c1ccc(C(C)(C)C)cc1)C3 [Example 6, 6-(2-chlorophenyl)-9-(4-tert.butyl)phenylsuphonyl-7,8,9,10-tetrahydro-1-methyl 4H-pyrido [4',3':4,5] thieno [3,2-f] 1,2,4-triazolo [4,3-a] 1,4-diazepine] |  |  | 117 nM |  | 13.8%
7 | COc1ccc(S(=O)(=O)N2CCc3c(sc4c3C(c3ccccc3Cl)=NCc3nnc(C)n3-4)C2)cc1OC [Example 7, 6-(2-chlorophenyl)-9-(3,4-dimethoxy)phenylsulphonyl-7,8,9,10-tetrahydro-1-methyl 4H-pyrido [4',3':4,5] thieno [3,2-f] 1,2,4-triazolo [4,3-a] 1,4 diazepine] |  |  | 119 nM |  | 26.6%
8 | Cc1cc(C)c(S(=O)(=O)N2CCc3c(sc4c3C(c3ccccc3Cl)=NCc3nnc(C)n3-4)C2)c(C)c1 [Example 8, 6-(2-chlorophenyl)-9-(2,4,6-trimethyl)phenylsulphonyl-7,8,9,10-tetrahydro-1-methyl 4H-pyrido [4',3':4,5] thieno [3,2-f] 1,2,4-triazolo [4,3-a] 1,4-diazepine] |  |  | 25.1 nM |  | 30.5%
9 | COc1ccc(S(=O)(=O)N2CCc3c(sc4c3C(c3ccccc3Cl)=NCc3nnc(C)n3-4)C2)cc1 [Example 9, 6-(2-chlorophenyl)-9-(4-methoxy)phenylsulphonyl-7,8,9,10-tetrahydro-1-methyl 4H-pyrido [4',3':4,5] thieno [3,2-f] 1,2,4-triazolo [4,3-a] 1,4-diazepine] |  |  | 122 nM |  | 9.4%
10 | Cc1nnc2n1-c1sc3c(c1C(c1ccccc1Cl)=NC2)CCN(S(=O)(=O)c1ccc(Oc2ccc([N+](=O)[O-])cc2)cc1)C3 [Example 10, 6-(2-chlorophenyl)-9-[4-(4'-nitrophenoxy)]phenylsulphonyl-7,8,9,10-tetrahydro-1-methyl 4H-pyrido [4',3':4,5] thieno [3,2-f] 1,2,4-triazolo [4,3-a] 1,4-diazepine] |  |  | 1.41 nM | 500 to 1000 mg/kg | 19.3%
11 | Cc1nnc2n1-c1sc3c(c1C(c1ccccc1Cl)=NC2)CCN(S(=O)(=O)c1cccs1)C3 [Example 11, 6-(2-chlorophenyl)-9-α-thienylphenylsulphonyl-7,8,9,10-tetrahydro-1-methyl 4H-pyrido [4',3':4,5] thieno [3,2-f] 1,2,4-triazolo [4,3-a] 1,4-diazepine] |  |  | 144 nM |  | 32.7%
12 | Cc1nnc2n1-c1sc3c(c1C(c1ccccc1Cl)=NC2)CCN(S(=O)(=O)c1ccco1)C3 [Example 12, 6-(2-chlorophenyl)-9-α-furylphenylsulphonyl-7,8,9,10-tetrahydro-1-methyl 4H-pyrido [4',3':4,5] thieno [3,2-f] 1,2,4-triazolo [4,3-a] 1,4-diazepine] |  |  | 110 nM |  | 21.4%
13 | Cc1nnc2n1-c1sc3c(c1C(c1ccccc1Cl)=NC2)CCN(S(=O)(=O)c1ccc[nH]1)C3 [Example 13, 6-(2-chlorophenyl)-9-(α-pyrrolyl)sulphonyl-7,8,9,10-tetrahydro-1-methyl-4H-pyrido [4',3':4,5] thieno [3,2-f] 1,2,4-triazolo [4,3-a] 1,4-diazepine] |  |  | 215 nM |  | 29.3%
14 | Cc1nnc2n1-c1sc3c(c1C(c1ccccc1Cl)=NC2)CCN(S(=O)(=O)c1cccc2cccnc12)C3 [Example 14, 6-(2-chlorophenyl)-9-(8-quinolyl)sulfonyl-7,8,9,10-tetrahydro-1-methyl-4H-pyrido-[4',3':4,5] thieno [3,2-f] 1,2,4-triazolo [4,3-a] 1,4-diazepine] |  |  | 65 nM |  | 17.4%
15 | Cc1nnc2n1-c1sc3c(c1C(c1ccccc1Cl)=NC2)CCN(S(=O)(=O)c1ccc2ccccc2c1)C3 [Example 15, 6-(2-chlorophenyl)-9-(2-naphtyl)sulphonyl-7,8,9,10-tetrahydro-1-methyl-4H-pyrido [4',3':4,5] thieno [3,2-f] 1,2,4-triazolo [4,3-a] 1,4-diazepine] |  |  | 431 nM |  | 34.8%
16 | Cc1nnc2n1-c1sc3c(c1C(c1ccccc1Cl)=NC2)CCN(S(=O)(=O)c1ccc(C(=O)O)cc1)C3 [Example 16, 6-(2-chlorophenyl)-9-(4-carboxy)phenylsulphonyl-7,8,9,10-tetrahydro-1-methyl-4H-pyrido [4',3':4,5] thieno [3,2-f] 1,2,4-triazolo [4,3-a] 1,4-diazepine] |  |  | 20.1 nM |  | 23.9%
17 | Cc1nnc2n1-c1sc3c(c1C(c1ccccc1Cl)=NC2)CCN(S(=O)(=O)c1ccc(Oc2ccc(C(=O)O)cc2)cc1)C3 [Example 17, 6-(2-chlorophenyl)-9-[4-(4'-(carboxy)phenyloxy)phenyl] sulphonyl-7,8,9,10-tetrahydro-1-methyl-4H-pyrido [4',3':4,5] thieno [3,2-f] 1,2,4-triazolo [4,3-a] 1,4-diazepine] |  |  | 472 nM |  | 7.8%
18 | COc1cc(OC)c(S(=O)(=O)N2CCc3c(sc4c3C(c3ccccc3Cl)=NCc3nnc(C)n3-4)C2)cc1SC [Example 18, 6-(2-chlorophenyl)-9-[5-methylthio 2,4-dimethoxy]phenyl sulphonyl-7,8,9,10-tetrahydro-1-methyl-4H-pyrido [4',3':4,5] thieno [3,2-f] 1,2,4-triazolo [4,3-a] 1,4-diazepine] |  |  | 22.2 nM |  | 10%
19 | COc1cc(OC)c(S(=O)(=O)N2CCc3c(sc4c3C(c3ccccc3Cl)=NCc3nnc(C)n3-4)C2)cc1S(C)(=O)=O [Example 19, 6-(2-chlorophenyl)-9-[5-mesyl 2,4-dimethoxy]phenylsulphonyl-7,8,9,10-tetrahydro-1-methyl-4H-pyrido [4',3':4,5] thieno [3,2-f] 1,2,4-triazolo [4,3-a] 1,4-diazepine] |  |  | 375 nM |  | 8.4%
20 | Cc1nnc2n1-c1sc3c(c1C(c1ccccc1Cl)=NC2)CCN(S(=O)(=O)C(C)C)C3 [Example 20, 6-(2-chlorophenyl)-9-isopropylsulfonyl-7,8,9,10-tetrahydro-1-methyl-4H-pyrido [4',3':4,5] thieno [3,2-f] 1,2,4-triazolo [4,3-a] 1,4-diazepine] |  |  | 517 nM |  | 47.5%

Reference: patent US5049560A, “Sulfonyl derivatives of thieno-triazolo-diazepines useful as anti-PAF and anti-ischemic agents” (priority 1989, dated 1991)
